IC50 data for 26 compounds are collected here from US11345713B2, “Compounds as modulators of TLR2 signaling” (Neuropore Therapies, inc., priority 2018, dated 2022).

Counter-ions that a name gives are not always drawn.

Test [1] concerns the target T1, human TLR2 (Pam2CSK4, TLR2/6 agonist) in HEK-Blue hTLR2 cells (Homo sapiens, UniProt O60603).
T1 construct: host or cells: HEK-Blue hTLR2 (HEK-293)
In words: HEK-Blue hTLR2 antagonism assay (SEAP reporter) with Pam2CSK4 as agonist. It is filed as cell-based. The conditions noted are these: 2 h compound pre-incubation, approx. 3×EC50 Pam2CSK4, 18 h, SEAP OD 655 nm, background subtracted. An outline of the steps: (§1)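 HEK-Blue hTLR2 cells (HEK-293 with human TLR2 and NFκB-driven SEAP), 1×10^5/well, pretreated with compound (1% DMSO final) for 2 h, then stimulated with about 3×EC50 Pam3CSK4 or Pam2CSK4 (EC50 set each run) for 18 h at 37 °C. Supernatant SEAP read by Quanti-Blue at OD 655 nm after 15 min; background-subtracted IC50.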

Test [2] has as its target T2, human TLR2 (Pam3CSK4, TLR1/2 agonist) in HEK-Blue hTLR2 cells (Homo sapiens, UniProt O60603).
T2 construct: host or cells: HEK-Blue hTLR2 (HEK-293)
In words: HEK-Blue hTLR2 antagonism assay (SEAP reporter) with Pam3CSK4 as agonist. It is filed as cell-based. The conditions noted are these: 2 h compound pre-incubation, approx. 3×EC50 Pam3CSK4, 18 h, SEAP OD 655 nm, background subtracted. The method, boiled down: as §1

T1 sequence (O60603 19-784 limits assumed): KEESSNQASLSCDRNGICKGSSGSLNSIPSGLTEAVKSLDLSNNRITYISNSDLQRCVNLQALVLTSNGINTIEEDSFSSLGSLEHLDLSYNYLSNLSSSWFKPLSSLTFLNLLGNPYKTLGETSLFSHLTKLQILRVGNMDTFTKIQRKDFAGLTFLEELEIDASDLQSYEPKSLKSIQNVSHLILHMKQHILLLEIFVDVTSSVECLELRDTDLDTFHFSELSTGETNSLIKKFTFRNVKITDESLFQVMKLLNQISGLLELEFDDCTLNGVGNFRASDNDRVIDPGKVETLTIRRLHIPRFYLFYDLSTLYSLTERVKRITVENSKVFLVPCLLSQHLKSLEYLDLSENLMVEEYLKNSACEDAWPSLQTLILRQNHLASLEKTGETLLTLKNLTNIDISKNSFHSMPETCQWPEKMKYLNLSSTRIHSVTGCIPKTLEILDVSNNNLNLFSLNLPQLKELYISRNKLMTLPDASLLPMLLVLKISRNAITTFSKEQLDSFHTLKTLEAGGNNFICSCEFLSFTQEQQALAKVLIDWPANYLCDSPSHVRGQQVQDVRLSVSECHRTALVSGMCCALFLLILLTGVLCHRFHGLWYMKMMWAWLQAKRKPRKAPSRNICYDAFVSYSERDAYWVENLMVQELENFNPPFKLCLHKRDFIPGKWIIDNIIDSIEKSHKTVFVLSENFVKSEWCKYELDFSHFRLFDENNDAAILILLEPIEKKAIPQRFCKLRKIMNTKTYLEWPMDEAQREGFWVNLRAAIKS
T2 sequence (O60603 19-784 limits assumed): as above

For the compound `CC(C)(C)OC(=O)N1CCCc2cc(/C=C/c3cc(F)c(O)c(C=O)c3)ccc21` [compound 61, tert-butyl (E)-6-(3-fluoro-5-formyl-4-hydroxystyryl)-3,4-dihydroquinoline-1(2H)-carboxylate], the IC50 in test [1] stood at 1 µM; in test [2] it was 0.4 µM.

For the compound `O=Cc1cc(/C=C/c2cccc(N3CCCC3)c2)cc(F)c1O` [compound 47, (E)-3-fluoro-2-hydroxy-5-(3-(pyrrolidin-1-yl)styryl)benzaldehyde], the IC50 in test [1] came to 1.3 µM; in test [2], 0.9 µM.

With `CC(C)(C)OC(=O)N1CCC(/C=C/c2cc(F)c(O)c(C=O)c2)CC1` [compound 31, tert-butyl (E)-4-(3-fluoro-5-formyl-4-hydroxystyryl)piperidine-1-carboxylate], the concentration for half-maximal inhibition (IC50) in test [1] came to 3.8 µM; in test [2], 6 µM.

In the case of `COc1cc(/C=C/c2ccc3ncccc3c2)cc(C=O)c1O` [compound 58, (E)-2-hydroxy-3-methoxy-5-(2-(quinolin-6-yl)vinyl)benzaldehyde], the IC50 in test [1] was 4.9 µM; in test [2], 5 µM.

For `COc1cc(/C=C/c2ccc(F)cc2)cc(C=O)c1O` [compound 7, (E)-5-(4-fluorostyryl)-2-hydroxy-3-methoxybenzaldehyde], the IC50 in test [1] turned out to be 7.9 µM; in test [2] it was 6.2 µM.

Take `COCCOc1ccc(/C=C/c2cc(C=O)c(O)c(OC)c2)cc1` [compound 54, (E)-2-hydroxy-3-methoxy-5-(4-(2-methoxyethoxy)styryl)benzaldehyde]: the IC50 stood at 4 µM in test [1] and 4.6 µM in test [2].

Take `O=Cc1cc(/C=C/c2ccc(OCC3CC3)cc2)cc(F)c1O` [compound 66, (E)-5-(4-(cyclopropylmethoxy)styryl)-3-fluoro-2-hydroxybenzaldehyde]: the IC50 in test [1] is 0.9 µM; in test [2], 0.3 µM.

Regarding `O=Cc1cc(/C=C/c2ccc(N3CCCC3)cc2)cc(F)c1O` [Example 49b, (E)-3-fluoro-2-hydroxy-5-(4-(pyrrolidin-1-yl)styryl)benzaldehyde], the IC50 in test [1] and in test [2] was 0.8 µM in each case.

On to `COc1cc(/C=C/C(=O)c2ccccc2)cc(C(=O)/C=C/c2ccccc2)c1O` [compound 84, (E)-3-(3-cinnamoyl-4-hydroxy-5-methoxyphenyl)-1-phenylprop-2-en-1-one], for which the IC50 is 3.4 µM in test [1] and 3.1 µM in test [2].

Turning to `COc1cc(-c2cc3c(s2)CCN(C(=O)C2CC2)C3)cc(/C=C/C(=O)c2ccccc2)c1O` [compound 73, (E)-3-(5-(5-(cyclopropanecarbonyl)-4,5,6,7-tetrahydrothieno[3,2-c]pyridin-2-yl)-2-hydroxy-3-methoxyphenyl)-1-phenylprop-2-en-1-one], the IC50 is 4.5 µM in test [1] and 4.8 µM in test [2].

Consider `COc1cc(/C=C/C(=O)N2CCOCC2)cc(C=O)c1O` [compound 35, (E)-2-hydroxy-3-methoxy-5-(3-morpholino-3-oxoprop-1-en-1-yl)benzaldehyde], for which the IC50 was determined as 68.5 µM in test [1] and 62.6 µM in test [2].

With `COc1cc(/C=C/c2ccc3c(c2)CCCN3C(=O)OC(C)(C)C)cc(C=O)c1O` [compound 60, tert-butyl (E)-6-(3-formyl-4-hydroxy-5-methoxystyryl)-3,4-dihydroquinoline-1(2H)-carboxylate], the results for the half-maximal inhibitory concentration (IC50) in test [1] and in test [2] were 2.3 µM and 0.9 µM, respectively.

In the case of `O=Cc1cc(/C=C/c2ccc3c(c2)OCCO3)cc(F)c1O` [compound 39, (E)-5-(2-(2,3-dihydrobenzo[b][1,4]dioxin-6-yl)vinyl)-3-fluoro-2-hydroxybenzaldehyde], the IC50 in test [1] worked out at 12.8 µM; in test [2] it was 15.4 µM.

On to `O=Cc1cc(/C=C/c2ccc3ncccc3c2)cc(F)c1O` [compound 59, (E)-3-fluoro-2-hydroxy-5-(2-(quinolin-6-yl)vinyl)benzaldehyde], for which the IC50 in test [1] turned out to be 4.1 µM; in test [2], 2.6 µM.

Take `O=Cc1c(O)cc(/C=C/c2ccc(N3CCCCC3)cc2)cc1F` [compound 71, (E)-2-fluoro-6-hydroxy-4-(4-(piperidin-1-yl)styryl)benzaldehyde]: the IC50 was 13.7 µM in test [1] and 2.5 µM in test [2].

In the case of `CC(=O)N/N=C/c1cc(/C=C/c2ccc(N3CCCC3)cc2)cc(F)c1O` [compound 77, N′-((E)-3-fluoro-2-hydroxy-5-((E)-4-(pyrrolidin-1-yl)styryl)benzylidene)acetohydrazide], the IC50 in test [1] amounted to 1.4 µM; in test [2] it was 1.1 µM.

On to `O=Cc1cc(/C=C/c2ccc(N3CCCC3)nc2)cc(F)c1O` [compound 86, (E)-3-fluoro-2-hydroxy-5-(2-(6-(pyrrolidin-1-yl)pyridin-3-yl)vinyl)benzaldehyde], for which the IC50 in test [1] stood at 3.8 µM; in test [2] it was 4.1 µM.

Take `O=Cc1cc(/C=C/c2ccc(-c3ccccc3)cc2)cc(F)c1O` [compound 37, (E)-5-(2-([1,1′-biphenyl]-4-yl)vinyl)-3-fluoro-2-hydroxybenzaldehyde]: the IC50 in test [1] stood at 1 µM; in test [2], 0.3 µM.

For the compound `COc1cc(-c2cc3c(s2)CCNC3)cc(C=O)c1O` [compound 13, 2-hydroxy-3-methoxy-5-(4,5,6,7-tetrahydrothieno[3,2-c]pyridin-2-yl)benzaldehyde hydrochloride], the 50% inhibitory concentration (IC50) in test [1] came out at 4.5 µM; in test [2], 3.8 µM.

In the case of `Oc1c(F)cc(/C=C/c2ccc(N3CCCC3)cc2)cc1/C=N/Oc1ccccc1` [compound 82, (E)-3-fluoro-2-hydroxy-5-((E)-4-(pyrrolidin-1-yl)styryl)benzaldehyde O-phenyl oxime], the IC50 in test [1] and in test [2] was 2.1 µM throughout.

As to `O=S(=O)(N/N=C/c1cc(/C=C/c2ccc(N3CCCC3)cc2)cc(F)c1O)c1ccccc1` [compound 81, N′-((E)-3-fluoro-2-hydroxy-5-((E)-4-(pyrrolidin-1-yl)styryl)benzylidene)benzenesulfonohydrazide], the results for the IC50 in test [1] and in test [2] were 16.4 µM and 13.2 µM, respectively.

Turning to `Oc1c(F)cc(/C=C/c2ccc(N3CCCC3)cc2)cc1CNC1CC1` [compound 91, (E)-2-((cyclopropylamino)methyl)-6-fluoro-4-(4-(pyrrolidin-1-yl)styryl)phenol], the half-maximal inhibitory concentration (IC50) in test [1] was determined as 30.6 µM; in test [2], 82.1 µM.

On to `COc1cc(-c2cc3c(s2)CCN(C(C)C)C3)cc(C=O)c1O` [compound 20, 2-hydroxy-5-(5-isopropyl-4,5,6,7-tetrahydrothieno[3,2-c]pyridin-2-yl)-3-methoxybenzaldehyde], for which the results for the IC50 in test [1] and in test [2] were 11.2 µM and 10 µM, respectively.

Consider `CN1CCCc2cc(/C=C/c3cc(F)c(O)c(C=O)c3)ccc21` [compound 62, (E)-3-fluoro-2-hydroxy-5-(2-(1-methyl-1,2,3,4-tetrahydroquinolin-6-yl)vinyl)benzaldehyde], for which the IC50 turned out to be 1.5 µM in test [1] and 0.8 µM in test [2].

On to `CCN1CCN(c2ccc(/C=C/c3cc(O)c(C=O)c(F)c3)cc2)CC1` [compound 72, (E)-4-(4-(4-ethylpiperazin-1-yl)styryl)-2-fluoro-6-hydroxybenzaldehyde], for which the values for the IC50 in test [1] and in test [2] were 8.2 µM and 11.2 µM, respectively.

In the case of `COc1cc(C=Cc2ccc3c(c2)OCCO3)cc(C=O)c1O` [compound 38, 5-(2-(2,3-dihydrobenzo[b][1,4]dioxin-6-yl)vinyl)-2-hydroxy-3-methoxybenzaldehyde], the IC50 in test [1] stood at 4.4 µM; in test [2], 5 µM.
